Experimental findings from patent US6211209A, “Method of inhibiting connective tissue degradation” (Warner-Lambert Company, priority 1998, dated 2001) are described below.

Each structure is given as a SMILES string. pIC50: −log10 of the molar value.

The first experiment deals with 92 kDa gelatinase. The experiment can be described thus: Gelatin zymography of bovine nasal cartilage conditioned media: expression of 92 kDa gelatinase. The conditions noted are these: various concentrations, IL-1β-induced, FIG. 1. It is filed as cell-based. Here is the method: (§1) To evaluate the effects of the compounds of the present invention on the expression of 72 kDa and 92 kDa gelatinases, samples obtained from the bovine nasal cartilage study (described above) were subjected to gelatin zymography.
(§2) Separating gels (8%) were made by combining 400 μL gelatin (25 mg/mL) with: 2.5 mL Tris (1.5 M); 100 μL SDS (10%); 2.6 mL acrylamide (30%); 10 μL TEMED; 4.6 mL dH2 O; 100 μL ammonium persulfate (10%). Stacking gels (4.5%) were formed by combining: 2.5 mL Tris (0.5 M); 100 μL SDS (10%); 1.5 mL acrylamide (30%); 10 μL TEMED; 5.8 mL dH2 O; 100 μL ammonium persulfate (10%).
(§3) Bovine nasal cartilage conditioned media was diluted (1:15) using sample buffer 1X (2% SDS, 15% glycerol, 0.01% bromophenol blue, 0.25M Trizma Base, pH 6.8). Thirty microliters of each of the diluted samples and molecular weight standards were subjected to electrophoresis at 4° C. under constant current conditions (20 mA of current/gel) using Tris/Glycine running buffer (0.5 M Trizma Base, pH 8.8 using glycine, 1% SDS) that was diluted 1:20 before use.
After completion of the electrophoretic procedure, the gel was first washed twice for 15 minutes in 2.5% Triton X-100. The gel was then rinsed with the gel incubation buffer (0.05 M Tris, pH 8.2, 0.005 M CaCl2, 0.5 μM ZnCl2) and incubated overnight in this buffer at 37° C. After the incubation period, the gel was stained for 30 minutes in 0.125% Coomassie and destained using 10% methanol/5% acetic acid destaining solution.
In the case of `Cc1ccc(Cl)c(Nc2ccccc2C=C2SC(=S)NC2=O)c1Cl` [Compound 11, 5-[2-(2,6-Dichloro-3-methyl-phenylamino)-benzylidene]-2-thioxo-thiazolidin-4-one], the “inhibiting expression of IL-1β-induced 92 kDa gelatinase” value was “effective in inhibiting expression of IL-1β-induced 92 kDa gelatinase in a dose-dependent manner”.

The experiment is the same for the next values; noted with them: versus 72 kDa gelatinase.
As for `Cc1ccc(Cl)c(Nc2ccccc2C=C2SC(=S)NC2=O)c1Cl` [Compound 11, 5-[2-(2,6-Dichloro-3-methyl-phenylamino)-benzylidene]-2-thioxo-thiazolidin-4-one], the “specificity of effects (92 kDa versus 72 kDa gelatinase)” value is recorded as “specific to 92 kDa”.

A further experiment deals with 72 kDa gelatinase. The experiment can be described thus: Gelatin zymography of bovine nasal cartilage conditioned media: expression of 72 kDa gelatinase. It is filed as cell-based. As to conditions: various concentrations, FIG. 1. Here is the method: as §1, §2, §3
After completion of the electrophoretic procedure, the gel was first washed twice for 15 minutes in 2.5% Triton X-100. The gel was then rinsed with the gel incubation buffer (0.05 M Tris, pH 8.2, 0.005 M CaCl2, 0.5 μM ZnCl2) and incubated overnight in this buffer at 37° C. […]
As for `Cc1ccc(Cl)c(Nc2ccccc2C=C2SC(=S)NC2=O)c1Cl` [Compound 11, 5-[2-(2,6-Dichloro-3-methyl-phenylamino)-benzylidene]-2-thioxo-thiazolidin-4-one], the “effect on expression of 72 kDa gelatinase” value is reported as “no effect on expression of 72 kDa gelatinase”.

The next experiment has as its system bovine nasal cartilage. The experiment can be described thus: Bovine nasal cartilage assay: inhibition of IL-1β-induced proteoglycan loss (chondroitin sulfate by 1,9 DMB). In kind it is cell-based. As to conditions: Bos taurus; concentration preventing 50% of proteoglycan loss; IL-1β-stimulated cartilage plugs. Here is the method:
The BNC (bovine nasal cartilage) assay provides a model for evaluating chrondroprotective compounds that block cartilage degradation through inhibition of enzyme activity or by altering the gene expression of the matrix metalloproteinases such as stromelysin.
The assay is accomplished in two phases. The cartilage plugs are first incubated with IL-1β in the presence of the compounds of the present method. The amount of proteoglycan released is then quantified by measuring chondroitin sulfate present in the media using the 1,9-Dimethylmethylene Blue Assay (1,9 DMB).
Bovine nasal septum is dissected free of surrounding tissue and wiped with 70% alcohol. A sterile cork borer is used to remove 5-mm cartilage disks of 2- to 3-mm thickness. Explants are equilibrated for 96 hours in F-12 supplemented with 10% fetal calf serum (FCS) and antibiotics at 37° C. in a humidified atmosphere of 95% air and 5% CO2. Explants are then rinsed with 1 mL F-12 Nutrient Mixture (without phenol red) in order to remove traces of FCS. Each treatment group is done in triplicate allowing: controls (500 μL F-12 medium +110 μL PBS with 0.1% BSA +7 μL DMSO); IL-1β (500 μL F-12 medium without phenol red +100 μL IL-1β (500 U) +7 μL DMSO +10 μL PBS with 0.1% BSA); and dose responses (10, 1, and 0.1 μM) (F-12 medium without phenol red +100 μL IL-1β (500 U) +7 μL compound dissolved in DMSO +10 μL PBS with 0.1% BSA), to be tested per each 24-well plate. The cartilage plugs are incubated in the presence of conditioned media (IL-1β+compound) for 48 hours. Fresh unconditioned media (no IL-1β or compound) is added and incubated for an additional 24 hours. Both the conditioned and unconditioned media are collected and saved for analysis using the 1,9 DMB assay.
The ability of a compound to inhibit proteoglycan released from the cartilage plugs is quantified by measuring chondroitin sulfate. This is done using the calorimetric 1,9 DMB assay. Depending on the amount of chondroitin sulfate present in the media a color change will occur turning the normally deep blue dye, vivid pink. This color change is measured using a Titertek Multiscan MCC 340 plate reader at 540 nm. A Cetus Pro/Pette is used to speed dilution and pipetting steps. The Cetus uses Sarstedt vials, designed for radioimmune assays, which have been inserted into Sarstedt 96-vial aluminum racks. The first row of 12 slots is left empty in order to accommodate the chondroitin sulfate standards (0.01-0.32 μg/mL shark chondroitin sulfate in 0.1 M phosphate buffer, pH 7.0, containing 0.01 M L-cysteine HCl and 0.05 M EDTA). It is necessary to dilute (1:5, 1:10) the medium before a […] is performed by adding 10 μL of collected media to 290 μL DMF (16 mg dye/1 L of 0.1 M formate buffer, pH 3.5, containing 5 mL ethanol) and reading at […]. Dilutions are performed on both the 48-hour and 72-hour media samples collected and saved earlier. Once the experiment has been completed, in order to determine the total amount of proteoglycan remaining in the plugs, they are subjected to papain digestion. Cartilage explants are digested in 20-mL glass scintillation vials by adding 50 μL papain in 1.0 mL cysteine buffer (0.01 M phosphate buffer, pH 7.0 containing 0.01 M L-cysteine HCl and 0.05 M EDTA). Digested material is diluted (1:60) and chondroitin sulfate values determined using the 1,9 DMB assay.
Determination of chondroitin sulfate in each sample is accomplished by subtracting the constant value determined from the linear regression performed on the standard curve, from the O.D. value for a particular well, and then dividing by the X coefficient calculated from the linear regression done on the standard curve. Each experimental well is split into two samples for determining chondroitin sulfate values, then the two are averaged. […]
One may read the pIC50 as the negative decadic logarithm of the IC50, by convention in mol/L. For `Cc1cccc(Nc2ccccc2-c2n[nH]c(=S)o2)c1C` [Compound 3, 5-[2-(2,3-Dimethyl-phenylamino)-phenyl]-3H-[1,3,4]oxadiazole-2-thione], the pIC50 is 4.51.
On to `Cc1ccc(Cl)c(Nc2ccccc2-c2n[nH]c(=S)[nH]2)c1Cl` [Compound 5, 5-[2-(2,6-Dichloro-3-methyl-phenylamino)-phenyl]-2,4-dihydro-[1,2,4]triazole-3-thione], for which the pIC50 was 5.00.
In the case of `Cc1ccc(Cl)c(Nc2ccccc2-c2n[nH]c(=S)n2C)c1Cl` [Compound 8, 5-[2-(2,6-Dichloro-3-methyl-phenylamino)-phenyl]-4-methyl-2,4-dihydro-[1,2,4]triazole-3-thione], the pIC50 was 5.31.
Take `Cc1ccc(Cl)c(Nc2ccccc2C=C2SC(=S)NC2=O)c1Cl` [Compound 11, 5-[2-(2,6-Dichloro-3-methyl-phenylamino)-benzylidene]-2-thioxo-thiazolidin-4-one]: the pIC50 is 5.89.
`Cc1ccc(Cl)c(Nc2ccccc2-c2nnc(NC#N)s2)c1Cl` [Compound 12, Cyanamide, [5-[2-[(2,6-dichloro-3-methylphenyl)amino]phenyl]-1,3,4-thiadiazol-2-yl]-] showed a pIC50 of 5.19.
On the same count and under the same terms, the result for `CC(C)(C)c1cc(Nc2ccccc2-c2n[nH]c(=S)o2)cc(C(C)(C)C)c1O` [Compound 9, 5-[2-(3,5-Di-tert-butyl-4-hydroxy-phenylamino)-phenyl]-3H-[1,3,4]oxadiazole-2-thione] reads 4.63; that for `Cc1ccc(Cl)c(Nc2ccccc2C=C2SC(=O)NC2=O)c1Cl` [Compound 15, 5-[2-(2,6-Dichloro-3-methyl-phenylamino)-benzylidene]-thiazolidine-2,4-dione], 5.35; that for `Cc1ccc(Cl)c(Nc2ccccc2-c2nsc(NC#N)n2)c1Cl` [Compound 18, Cyanamide, [3-[2-[(2,6-dichloro-3-methylphenyi)amino]phenyl]-1,2,4-thiadiazol-5-yl]-], 6.52.
In turn, `Cc1ccc(Cl)c(Nc2ccccc2-c2n[nH]c(=S)o2)c1Cl` [Compound 4, 5-[2-(2,6-Dichloro-3-methyl-phenylamino)-phenyl]-3H-[1,3,4]oxadiazole-2-thione] had a pIC50 of 4.57.
In the case of `Cc1ccc(Cl)c(Nc2ccccc2/C=C2\SC(NC#N)=NC2=O)c1Cl` [Compound 17, Cyanamide, [5-[[2-[(2,6-dichloro-3-methylphenyl)amino]phenyl]methylene]-4,5-dihydro-4-oxo-2-thiazolyl]-, (Z)-], the pIC50 was 6.10.
Regarding `Cc1ccc(Cl)c(Nc2ccccc2C(=O)NNC(N)=S)c1Cl` [Compound 6, 2-[(2,6-dichloro-3-methylphenyl)amino]-,2-(aminothioxomethyl)hydrazide], the pIC50 was 5.89.
Regarding `CNC(=O)N(O)C(C)c1cccc(Nc2ccccc2-c2n[nH]c(=S)o2)c1Cl` (stereo not drawn) [Compound 16, Urea, N-[1-[2-chloro-3-[[(4,5-dihydro-5-thioxo-1,3,4-oxadiazol-2-yl)phenyl]amino]phenyl]ethyl]-N-hydroxy-N'-methyl-], the pIC50 was 5.85.
On the same count and under the same terms, next, `O=c1[nH]nc(-c2ccccc2Nc2ccccc2)o1` [Compound 2, 5-(2-Phenylamino-phenyl)-3H-[1,3,4]oxadiazol-2-one]: 4.39; `CCOC(=O)N(O)C(C)c1cccc(Nc2ccccc2-c2n[nH]c(=S)o2)c1Cl` (stereo not drawn) [Compound 13, Carbamic acid, [1-[2-chloro-3-[[2-(4,5-dihydro-5-thioxo-1,3,4-oxadiazol-2-yl)phenyl]amino]phenyl]ethyl]hydroxy-, ethyl ester]: 5.28.
The compound `CC(O)c1cccc(Nc2ccccc2-c2n[nH]c(=S)o2)c1Cl` (stereo not drawn) [Compound 10, 5-{2-[2-Chloro-3-(1-hydroxy-ethyl)-phenylamino]-phenyl}-3H-[1,3,4]oxadiazole-2-thione] had a pIC50 of 4.72.
